In patent US11708318B2, “Polymorphic forms of RAD1901-2HCL” (Radius Pharmaceuticals, Inc., priority 2017, dated 2023):
Entries after “also recorded” stand apart in the source; their conditions may differ. One block for each compound: values may come before it.

Assays:
Format in all cases: physicochemical
[1] = Gravimetric Vapour Sorption (GVS), with XRPD of the recovered sample; conditions: for Hygroscopicity (GVS): 0-90% RH
Method: Sorption isotherms were obtained using a SMS DVS Intrinsic moisture sorption analyzer, controlled by DVS Intrinsic Control software v1.0.1.2 (or v 1.0.1.3). The sample temperature was maintained at 25° C. by the instrument controls. The humidity was controlled by mixing streams of dry and wet nitrogen, with a total flow rate of 200 ml/min. The relative humidity was measured by a calibrated Rotronic probe (dynamic range of 1.0-100% RH), located near the sample. The weight change, (mass relaxation) of the sample as a function of % RH was constantly monitored by the microbalance (accuracy ±0.005 mg).
A sample (e.g., 20 mg) was placed in a tared mesh stainless steel basket under ambient conditions. The sample was loaded and unloaded at 40% RH and 25° C. (typical room conditions). A moisture sorption isotherm was performed as outlined below (2 scans giving 1 complete cycle). Standard isotherms were performed at 25° C. at 10% RH intervals over a 0-90% RH range. Data analysis was carried out using Microsoft Excel using DVS Analysis Suite v6.2 (or 6.1 or 6.0).
In a cycle of 2 scans, the first scan was performed with adsorption of 40-90% RH, followed by a second scan with desorption of 90-0% RH and adsorption of 0-40% RH, with intervals of 10% RH, at 25° C. with stability dm/dt of 0.002% ° C./min. The sorption time was 6 hr time out.
The sample was recovered after completion of the isotherm and re-analyzed by XRPD. Custom moisture sorption methods were also performed at 25° C. at fixed % RH intervals over a 0-95% RH range, with the purpose to fully understand the sorption/desorption behavior of the compound under elevated conditions.
To further explore the humidity behavior of Sample 1 (Form 1) upon exposure to high RH (>90%), custom GVS experiments were designed and carried out. Initially, the sample was treated by holding at 90 and then 95% RH for ˜12 hours to see if hydrate formation could be observed (HighRH method of Steps 1 and 2 of Table 2, FIGS. 6C-6D).
To test the stability of the hydrated state, GVS method HighRH_Desorp_3 was designed with a desorption step and subsequent adsorption (see Table 2 with steps 1-4, FIGS. 6E-6F).
Finally, to ensure complete conversion to the anhydrous and hydrated forms, a GVS experiment was designed to increase both the length of the desorption step at 0% RH, and the adsorption step at 95% RH, respectively (Table 3). Based on the weight stabilization observed in the kinetic plots for Sample 1 in HighRH and HighRH_Desorp_3 methods discussed above (FIGS. 6D and 6F), a holding time of 800 mins at 0% RH and 1600 mins at 95% RH were chosen. A double cycle was also recorded for this experiment to observe whether the sample would return to Form 1 or form a mixed anhydrous/hydrated species (see Table 3, FIGS. 6G-6H).

[2] = Storage at elevated temperature/humidity, analysed by XRPD
Method: Samples 1 and 2 were characterized by XRPD at various conditions. XRPD patterns were collected for the samples at ambient condition as the samples were provided; at variable temperature (VT-XRPD); at variable humidity (VH-XRPD); after the samples were exposed to 40° C./75% RH for 1 week and 25° C./97% RH for 1 week, respectively; and after a GVS measurement wherein the samples were exposed to 0-90% RH. Samples 1 and 2 were also characterized by ^1H NMR, TGA, DSC, KF, IC, GVS (exposed to 0-90% RH), PLM, SEM, and HPLC (Table 5).

[3] = Solubility assessment of amorphous RAD1901-2HCl; conditions: thermodynamic from solid, read-out: Solubility assessment 10 vol.
Method: In a scale-up preparation of amorphous RAD1901-2HCl, RAD1901-2HCl (600 mg) was dissolved in water (20 vol., 12 mL) and filtered to remove any remaining solid particles. The solution was then aliquoted into 24 HPLC vials, frozen in a dry ice/acetone bath and the solvent removed by lyophilisation. Solids produced by lyophilization were used directly in solubility assessment and polymorph screens in Example 4.
Amorphous RAD1901-2HCl prepared as described in Example 3B was used directly in solubility assessment and polymorph screens (Table 15). XRPD patterns were further obtained for amorphous RAD1901-2HCl prepared using other solvents.

[4] = Solubility assessment of amorphous RAD1901-2HCl in water/organic solvent system; conditions: organic solvent or mixture, thermodynamic from solid
Method: Samples of amorphous RAD1901-2HCl were prepared in water/organic solvent mixtures containing varying ratios of water. The organic solvents chosen were anhydrous ethanol, methanol and ethyl acetate. The percentage of water in the water/organic solvent mixtures was varied between 0 and 10% (v/v) in order to place a limit on the level of water that can be present during production processes, and to retain formation of Form 1. Above this water activity limit, the hydrated Form 3 will be obtained, as shown by GVS experiments (see FIGS. 6G and 20A). It should be noted that samples prepared in ethyl acetate, were either slurried in anhydrous ethyl acetate, or in water saturated ethyl acetate.
The water activity values for each water/organic solvent mixture are provided in Table 16, and were calculated using the reference given in Bell, Halling, Enzyme Microbiol. Technol. 1997, 20, 471, incorporated herein by reference.

- XRPD post GVS (uptake 0-90% RH) ([1]; after exposure to 0-90% RH): stable; also recorded: No changes
- Hygroscopicity compared with Form 2 ([1]; than Form 2): lower hygroscopicity
- XRPD after storage at 40° C./75% RH for 1 week ([2]; 40° C./75% RH, 1 week): stable
- Solid form on prolonged exposure to high RH (>90%) ([2]; high RH (>90%), e.g. for 7 days): converted to the hydrate Form 3
- Stability of the polymorphic form (overall characterization) ([2]; relative to heat and/or humidity): stable
Compound: CCNCCc1ccc(CN(CC)c2cc(OC)ccc2[C@@H]2CCc3cc(O)ccc3C2)cc1.Cl.Cl [Form 1]
- Hygroscopicity (GVS) [1]: relatively non-hygroscopic; also recorded: low hygroscopicity
- Solid form on exposure to high RH (>90%) by GVS ([1]; above 90% RH): irreversibly converted to the hydrate Form 3; also recorded: started converting to the hydrate Form 3
- XRPD after storage at 25° C./97% RH for 1 week ([2]; 25° C./97% RH, 1 week): converted to Form 3; also recorded: conversion towards a hydrated state Form 3

- Solid form after exposure to <40% RH for 8 hr ([2]; <40% RH, 8 hr): Form 2
Compound: CCNCCc1ccc(CN(CC)c2cc(OC)ccc2[C@@H]2CCc3cc(O)ccc3C2)cc1.Cl.Cl [Form 3]

- solubility ([3]; organic solvent or mixture, 1,2-dimethoxyethane, sample ID B16): < 100 mg/mL
- solubility ([3]; organic solvent or mixture, 1,4-Dioxane, sample ID B14): < 100 mg/mL
- solubility ([3]; organic solvent or mixture, 1-propanol, sample ID B8): < 100 mg/mL
- solubility ([3]; organic solvent or mixture, 2-propanol, sample ID B6): < 100 mg/mL
- solubility ([3]; organic solvent or mixture, 10% water/EtOH, sample ID B22): > 100 mg/mL
- solubility ([3]; organic solvent or mixture, 10% water/IPA, sample ID B23): < 100 mg/mL
- solubility ([3]; organic solvent or mixture, 10% water/THF, sample ID B24): < 100 mg/mL
- solubility ([3]; organic solvent or mixture, Acetone, sample ID B9): < 100 mg/mL
- solubility ([3]; organic solvent or mixture, Acetonitrile, sample ID B20): < 100 mg/mL
- solubility ([3]; organic solvent or mixture, Dichloromethane, sample ID B18): < 100 mg/mL
- solubility ([3]; organic solvent or mixture, Dimethyl sulfoxide, sample ID B11): > 100 mg/mL
- solubility ([3]; organic solvent or mixture, Ethanol, sample ID B10): < 100 mg/mL
- solubility ([3]; organic solvent or mixture, Ethyl acetate, sample ID B3): < 100 mg/mL
- solubility ([3]; organic solvent or mixture, Isopropyl acetate, sample ID B4): < 100 mg/mL
- solubility ([3]; organic solvent or mixture, MEK, sample ID B7): < 100 mg/mL
- solubility ([3]; organic solvent or mixture, MIBK, sample ID B5): < 100 mg/mL
- solubility ([3]; organic solvent or mixture, Methanol, sample ID B19): < 100 mg/mL
- solubility ([3]; organic solvent or mixture, Nitromethane, sample ID B21): < 100 mg/mL
- solubility ([3]; organic solvent or mixture, Propyl acetate, sample ID B2): < 100 mg/mL
- solubility ([3]; organic solvent or mixture, TBME, sample ID B13): < 100 mg/mL
- solubility ([3]; organic solvent or mixture, Tetrahydrofuran, sample ID B17): < 100 mg/mL
- solubility ([3]; organic solvent or mixture, Toluene, sample ID B15): < 100 mg/mL
- solubility ([3]; organic solvent or mixture, n-Heptane, sample ID B1): < 100 mg/mL
- solubility ([3]; Water, sample ID B12): > 100 mg/mL
- solubility ([4]; EtOH/H2O (90:10), EtOH/H2O (90:10), sample ID C1, read-out: Solubility assessment 10 vol.): > 100 mg/mL
- solubility ([4]; EtOH/H2O (95:5), EtOH/H2O (95:5), sample ID C2, read-out: Solubility assessment 10 vol.): < 100 mg/mL
- solubility ([4]; EtOH/H2O (98:2), EtOH/H2O (98:2), sample ID C3, read-out: Solubility assessment 10 vol.): < 100 mg/mL
- solubility ([4]; EtOH/H2O (99:1), EtOH/H2O (99:1), sample ID C4, read-out: Solubility assessment 10 vol.): < 100 mg/mL
- solubility ([4]; MeOH/H2O (90:10), MeOH/H2O (90:10), sample ID C5, read-out: Solubility assessment 10 vol.): > 100 mg/mL
- solubility ([4]; MeOH/H2O (95:5), MeOH/H2O (95:5), sample ID C6, read-out: Solubility assessment 10 vol.): > 100 mg/mL
- solubility ([4]; MeOH/H2O (98:2), MeOH/H2O (98:2), sample ID C7, read-out: Solubility assessment 10 vol.): < 100 mg/mL
- solubility ([4]; MeOH/H2O (99:1), MeOH/H2O (99:1), sample ID C8, read-out: Solubility assessment 10 vol.): < 100 mg/mL
- solubility ([4]; anhydrous ethyl acetate, Ethyl acetate (anhydrous), sample ID C9, read-out: Solubility assessment 10 vol.): < 100 mg/mL
- solubility ([4]; anhydrous ethyl acetate, Ethyl acetate (anhydrous), sample ID C9, read-out: Solubility assessment 20 vol): < 50 mg/mL
- solubility ([4]; anhydrous ethyl acetate, Ethyl acetate (anhydrous), sample ID C9, read-out: Solubility assessment 30 vol): < 33.3 mg/mL
- solubility ([4]; water-saturated ethyl acetate, Water-saturated ethyl acetate, sample ID C10, read-out: Solubility assessment 10 vol.): < 100 mg/mL
- solubility ([4]; water-saturated ethyl acetate, Water-saturated ethyl acetate, sample ID C10, read-out: Solubility assessment 20 vol): < 50 mg/mL
- solubility ([4]; water-saturated ethyl acetate, Water-saturated ethyl acetate, sample ID C10, read-out: Solubility assessment 30 vol): < 33.3 mg/mL
Compound: CCNCCc1ccc(CN(CC)c2cc(OC)ccc2[C@@H]2CCc3cc(O)ccc3C2)cc1.Cl.Cl [amorphous RAD1901-2HCl]

- Hygroscopicity (GVS) [1]: hygroscopic
- Solid form after exposure to >40% RH for 7 days ([2]; >40% RH, 7 days): Form 3
Compound: CCNCCc1ccc(CN(CC)c2cc(OC)ccc2[C@@H]2CCc3cc(O)ccc3C2)cc1.Cl.Cl [Form 2]
